The record followed here is ChEMBL document CHEMBL1201862, “PubChem BioAssay data set” (2004).

Each structure is given as a SMILES string. The source made the active and inactive calls.

The target in experiment [1] is T1, Alkaline phosphatase, tissue-nonspecific isozyme (Homo sapiens, UniProt P05186).
T1 sequence (P05186 whole entry): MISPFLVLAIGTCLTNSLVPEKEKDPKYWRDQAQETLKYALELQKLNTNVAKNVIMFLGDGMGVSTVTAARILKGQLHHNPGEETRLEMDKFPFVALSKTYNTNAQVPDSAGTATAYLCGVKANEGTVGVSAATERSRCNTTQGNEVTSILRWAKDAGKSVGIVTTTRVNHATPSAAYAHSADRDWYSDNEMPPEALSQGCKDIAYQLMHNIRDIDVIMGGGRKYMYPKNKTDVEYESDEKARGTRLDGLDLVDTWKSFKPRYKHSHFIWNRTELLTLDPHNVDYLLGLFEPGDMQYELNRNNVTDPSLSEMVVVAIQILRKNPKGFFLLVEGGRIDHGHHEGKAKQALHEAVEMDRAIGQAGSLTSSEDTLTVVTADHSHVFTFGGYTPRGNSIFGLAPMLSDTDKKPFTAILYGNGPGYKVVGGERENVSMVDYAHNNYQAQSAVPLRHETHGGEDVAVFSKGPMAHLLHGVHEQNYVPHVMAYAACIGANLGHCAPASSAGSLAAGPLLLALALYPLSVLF

For experiment [2], the target named is Mothers against decapentaplegic homolog 3 (Homo sapiens, UniProt P84022). Put plainly: Smad3 binding inhibitors, lysate ELISA, dose response, cell lysate, secondary confirmation, chemiluminescent ELISA, HEK293 lysate (AID 1058). In kind it is functional.
Chain of Mothers against decapentaplegic homolog 3 (P84022 whole entry): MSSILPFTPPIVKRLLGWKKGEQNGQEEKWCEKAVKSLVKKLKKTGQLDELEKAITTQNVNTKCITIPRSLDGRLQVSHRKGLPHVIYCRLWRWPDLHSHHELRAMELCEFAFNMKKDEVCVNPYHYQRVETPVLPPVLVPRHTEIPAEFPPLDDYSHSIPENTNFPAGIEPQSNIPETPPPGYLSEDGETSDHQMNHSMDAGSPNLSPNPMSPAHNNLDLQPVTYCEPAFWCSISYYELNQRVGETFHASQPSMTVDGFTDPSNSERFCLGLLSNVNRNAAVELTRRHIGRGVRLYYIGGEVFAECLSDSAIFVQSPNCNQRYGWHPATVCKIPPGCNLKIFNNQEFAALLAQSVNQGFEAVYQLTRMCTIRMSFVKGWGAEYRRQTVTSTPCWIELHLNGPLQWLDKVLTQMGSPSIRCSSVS
Experiment [3] deals with Luciferin 4-monooxygenase (Photinus pyralis, UniProt P08659). Kind of experiment: Counter Screen for Luciferase-based Assay Positives. [Related pubchem assays: 620, 618, 411 ].
Chain of Luciferin 4-monooxygenase (P08659 whole entry): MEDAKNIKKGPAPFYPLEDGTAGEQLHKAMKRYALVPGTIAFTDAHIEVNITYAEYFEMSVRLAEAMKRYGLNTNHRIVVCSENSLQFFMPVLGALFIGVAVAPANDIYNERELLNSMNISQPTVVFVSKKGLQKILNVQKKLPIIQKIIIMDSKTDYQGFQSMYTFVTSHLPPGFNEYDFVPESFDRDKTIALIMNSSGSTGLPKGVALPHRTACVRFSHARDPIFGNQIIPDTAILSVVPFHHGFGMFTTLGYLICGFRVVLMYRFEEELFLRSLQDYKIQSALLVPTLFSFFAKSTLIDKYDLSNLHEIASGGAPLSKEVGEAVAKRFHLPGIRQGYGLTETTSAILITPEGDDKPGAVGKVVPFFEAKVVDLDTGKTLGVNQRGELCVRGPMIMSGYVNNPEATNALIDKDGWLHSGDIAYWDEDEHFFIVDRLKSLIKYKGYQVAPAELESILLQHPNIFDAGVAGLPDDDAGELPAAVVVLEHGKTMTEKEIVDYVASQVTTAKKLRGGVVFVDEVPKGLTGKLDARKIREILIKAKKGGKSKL
A short description of experiment [4]: Luminescence Cell-Based Dose Retest to Confirm Inhibitors of Cancer Stem Cells. [Related pubchem assays (depositor defined):AID2717, AID2721]. The format is functional. To be noted: Homo sapiens.
Another experiment deals with T2, Protein RecA (Mycobacterium tuberculosis, UniProt P9WHJ3).
T2 sequence (P9WHJ3 whole entry): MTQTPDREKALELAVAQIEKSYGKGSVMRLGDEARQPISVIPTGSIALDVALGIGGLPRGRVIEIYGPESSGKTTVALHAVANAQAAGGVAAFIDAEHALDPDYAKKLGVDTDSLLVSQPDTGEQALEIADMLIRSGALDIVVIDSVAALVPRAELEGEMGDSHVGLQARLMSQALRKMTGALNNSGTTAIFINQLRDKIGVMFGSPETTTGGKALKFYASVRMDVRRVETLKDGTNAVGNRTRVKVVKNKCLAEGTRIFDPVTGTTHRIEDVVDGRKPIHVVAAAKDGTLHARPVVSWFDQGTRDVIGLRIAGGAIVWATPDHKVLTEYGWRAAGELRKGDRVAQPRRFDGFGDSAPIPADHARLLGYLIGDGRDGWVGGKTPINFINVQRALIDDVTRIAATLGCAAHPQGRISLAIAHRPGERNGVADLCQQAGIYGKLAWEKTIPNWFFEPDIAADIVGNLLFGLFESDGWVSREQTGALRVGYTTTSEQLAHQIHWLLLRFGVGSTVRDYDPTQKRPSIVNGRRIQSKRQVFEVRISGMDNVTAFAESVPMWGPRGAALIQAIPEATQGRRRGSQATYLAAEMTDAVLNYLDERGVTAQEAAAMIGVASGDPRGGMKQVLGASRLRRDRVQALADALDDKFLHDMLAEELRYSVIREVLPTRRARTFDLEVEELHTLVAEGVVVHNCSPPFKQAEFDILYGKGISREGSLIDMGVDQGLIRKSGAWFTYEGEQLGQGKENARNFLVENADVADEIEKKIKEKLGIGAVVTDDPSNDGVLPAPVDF
Put plainly: Fluorescence Cell-Free Homogeneous Dose Retest to Identify Inhibitors of RecA-Intein Splicing Activity. [Related pubchem assays (depositor defined):AID2097, AID2223, AID489010, AID492950]. The format is functional.

The test system of the next experiment is HT-1080. Kind of experiment: cytotoxicity in HT1080 fibrosarcoma cells, cell-based, fluorescence readout (AID 620). In kind it is functional. To be noted: Homo sapiens.
The target of experiment [5] is T3, Replicative DNA helicase DnaB (Mycobacterium tuberculosis, UniProt P9WMR3).
T3 sequence (P9WMR3 whole entry): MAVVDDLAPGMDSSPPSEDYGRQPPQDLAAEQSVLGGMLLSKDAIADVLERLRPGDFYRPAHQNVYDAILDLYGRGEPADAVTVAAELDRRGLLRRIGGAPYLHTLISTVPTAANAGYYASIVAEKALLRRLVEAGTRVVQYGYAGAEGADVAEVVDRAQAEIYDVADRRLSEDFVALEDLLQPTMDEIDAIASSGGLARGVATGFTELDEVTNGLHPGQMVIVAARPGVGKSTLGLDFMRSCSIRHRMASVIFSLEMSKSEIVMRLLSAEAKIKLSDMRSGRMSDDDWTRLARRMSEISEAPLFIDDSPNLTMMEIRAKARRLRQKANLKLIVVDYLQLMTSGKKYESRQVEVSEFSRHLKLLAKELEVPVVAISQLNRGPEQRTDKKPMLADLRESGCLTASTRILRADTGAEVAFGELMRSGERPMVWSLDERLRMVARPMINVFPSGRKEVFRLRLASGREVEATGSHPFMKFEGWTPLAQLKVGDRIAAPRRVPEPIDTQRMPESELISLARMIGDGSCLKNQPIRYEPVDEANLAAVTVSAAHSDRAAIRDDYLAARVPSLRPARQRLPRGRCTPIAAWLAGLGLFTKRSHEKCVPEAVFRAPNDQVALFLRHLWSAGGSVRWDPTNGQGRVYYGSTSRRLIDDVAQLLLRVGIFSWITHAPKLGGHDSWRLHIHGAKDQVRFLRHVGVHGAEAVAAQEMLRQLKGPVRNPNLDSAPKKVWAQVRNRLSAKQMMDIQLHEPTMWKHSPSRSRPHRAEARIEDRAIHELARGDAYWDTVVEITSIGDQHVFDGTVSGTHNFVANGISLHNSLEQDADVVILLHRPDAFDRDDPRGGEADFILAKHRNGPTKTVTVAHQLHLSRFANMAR
Kind of experiment: DnaB intein splicing inhibitors, dose response, biochemical, cell-free fluorescence (AID 449749). In kind it is functional.

Experiment [6] can be described thus: inhibitors of PGC1a acetylation in cells, dose response, cell-based, cherry-picked samples (AID 720514).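 Note: potency may reflect raised or lowered acetylation signal.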 In kind it is functional.
The nature of experiment [7]: Counterscreen for IDE inhibitors: Luminescence-based cell-based high throughput dose response assay to identify compounds that are cytotoxic to HEK cells. [Related pubchem assays: 434962 (Primary screen (IDE inhibitors in singlicate)), 449730 (Counterscreen (Cytotoxicity in triplicate)), 435028 (Confirmation (IDE inhibitors in triplicate)) …. In kind it is functional. The conditions noted are these: HEK293.

For another experiment, the target named is T4, Insulin-degrading enzyme (Homo sapiens, UniProt P14735).
T4 sequence (P14735 whole entry): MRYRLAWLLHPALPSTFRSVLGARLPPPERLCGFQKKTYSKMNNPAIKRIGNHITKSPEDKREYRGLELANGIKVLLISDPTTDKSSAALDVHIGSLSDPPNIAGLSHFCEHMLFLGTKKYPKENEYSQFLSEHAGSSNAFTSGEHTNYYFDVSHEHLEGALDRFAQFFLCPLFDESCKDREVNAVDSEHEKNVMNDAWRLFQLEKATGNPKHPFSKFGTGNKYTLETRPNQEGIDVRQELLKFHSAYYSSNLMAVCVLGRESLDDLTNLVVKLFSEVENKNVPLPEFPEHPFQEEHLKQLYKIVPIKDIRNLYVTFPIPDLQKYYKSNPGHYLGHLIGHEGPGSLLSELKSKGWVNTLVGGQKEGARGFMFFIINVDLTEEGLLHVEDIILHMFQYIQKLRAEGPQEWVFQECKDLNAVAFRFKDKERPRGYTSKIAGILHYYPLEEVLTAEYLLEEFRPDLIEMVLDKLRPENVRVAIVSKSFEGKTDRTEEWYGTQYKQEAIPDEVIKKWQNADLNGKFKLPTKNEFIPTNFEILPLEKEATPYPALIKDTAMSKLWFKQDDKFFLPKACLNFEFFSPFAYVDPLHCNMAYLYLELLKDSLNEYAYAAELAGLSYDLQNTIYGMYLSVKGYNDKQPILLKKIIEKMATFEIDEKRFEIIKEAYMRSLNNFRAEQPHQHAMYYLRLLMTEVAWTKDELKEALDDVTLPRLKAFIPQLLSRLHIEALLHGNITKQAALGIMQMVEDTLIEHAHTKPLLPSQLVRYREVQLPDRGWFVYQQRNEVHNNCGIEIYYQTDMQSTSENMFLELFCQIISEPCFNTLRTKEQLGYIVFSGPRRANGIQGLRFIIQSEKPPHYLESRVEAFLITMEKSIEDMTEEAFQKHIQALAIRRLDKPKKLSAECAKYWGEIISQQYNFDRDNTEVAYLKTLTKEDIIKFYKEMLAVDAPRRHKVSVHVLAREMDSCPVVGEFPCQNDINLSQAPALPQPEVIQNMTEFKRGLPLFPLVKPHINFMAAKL
Put plainly: Dose Response: Fluorescence polarization-based cell-based high throughput dose response assay for inhibitors of insulin-degrading enzyme (IDE). [Related pubchem assays: 434962 (Primary screen (IDE inhibitors in singlicate)), 449730 (Counterscreen (Cytotoxicity in triplicate)), 435028 (Confirmation (IDE inhibitors in triplicate)), 434984 (Summary …. The format is functional.

Another experiment concerns the target T5, Estrogen receptor (Homo sapiens, UniProt P03372).
T5 sequence (P03372 whole entry): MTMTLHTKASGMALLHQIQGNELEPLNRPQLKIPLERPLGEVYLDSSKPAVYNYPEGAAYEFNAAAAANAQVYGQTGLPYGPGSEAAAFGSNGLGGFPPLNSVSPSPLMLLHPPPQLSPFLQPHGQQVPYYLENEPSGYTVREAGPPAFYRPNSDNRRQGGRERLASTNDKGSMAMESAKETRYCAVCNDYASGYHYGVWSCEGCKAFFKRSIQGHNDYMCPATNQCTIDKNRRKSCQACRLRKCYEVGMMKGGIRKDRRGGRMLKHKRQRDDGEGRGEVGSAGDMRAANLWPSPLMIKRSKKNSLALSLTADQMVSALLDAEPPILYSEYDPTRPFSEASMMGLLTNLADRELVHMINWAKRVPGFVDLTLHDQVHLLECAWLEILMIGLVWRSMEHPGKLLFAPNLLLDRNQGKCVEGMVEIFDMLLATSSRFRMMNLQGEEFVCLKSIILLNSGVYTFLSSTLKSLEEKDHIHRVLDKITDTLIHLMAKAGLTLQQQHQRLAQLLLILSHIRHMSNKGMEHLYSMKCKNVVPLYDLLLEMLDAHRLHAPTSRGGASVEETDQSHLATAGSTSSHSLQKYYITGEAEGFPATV

The target of experiment [8] is T6, Heat shock 70 kDa protein 1A (Homo sapiens, UniProt P0DMV8). Put plainly: Hsp70 inhibitors, probe displacement, primary screen, biochemical, fluorescence polarization (AID 583).
T6 sequence (P0DMV8 whole entry): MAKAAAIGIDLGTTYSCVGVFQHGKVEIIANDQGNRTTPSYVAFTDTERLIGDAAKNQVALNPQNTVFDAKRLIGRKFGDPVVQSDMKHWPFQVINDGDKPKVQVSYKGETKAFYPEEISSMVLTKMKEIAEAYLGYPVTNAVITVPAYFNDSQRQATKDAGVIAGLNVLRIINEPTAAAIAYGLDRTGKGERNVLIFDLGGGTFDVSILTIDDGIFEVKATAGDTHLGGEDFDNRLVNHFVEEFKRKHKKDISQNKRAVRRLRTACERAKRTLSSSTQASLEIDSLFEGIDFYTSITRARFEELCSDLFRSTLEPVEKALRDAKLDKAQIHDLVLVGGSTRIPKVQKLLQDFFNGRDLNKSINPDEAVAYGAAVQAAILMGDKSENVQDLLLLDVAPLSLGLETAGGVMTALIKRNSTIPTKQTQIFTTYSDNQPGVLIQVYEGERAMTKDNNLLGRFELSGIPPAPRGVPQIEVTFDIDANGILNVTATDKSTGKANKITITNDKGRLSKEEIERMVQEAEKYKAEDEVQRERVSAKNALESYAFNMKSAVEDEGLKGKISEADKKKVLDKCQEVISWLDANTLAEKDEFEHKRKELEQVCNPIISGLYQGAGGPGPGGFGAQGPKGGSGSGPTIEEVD
Another experiment deals with Estrogen receptor beta (Homo sapiens, UniProt Q92731).
Chain of Estrogen receptor beta (Q92731 whole entry): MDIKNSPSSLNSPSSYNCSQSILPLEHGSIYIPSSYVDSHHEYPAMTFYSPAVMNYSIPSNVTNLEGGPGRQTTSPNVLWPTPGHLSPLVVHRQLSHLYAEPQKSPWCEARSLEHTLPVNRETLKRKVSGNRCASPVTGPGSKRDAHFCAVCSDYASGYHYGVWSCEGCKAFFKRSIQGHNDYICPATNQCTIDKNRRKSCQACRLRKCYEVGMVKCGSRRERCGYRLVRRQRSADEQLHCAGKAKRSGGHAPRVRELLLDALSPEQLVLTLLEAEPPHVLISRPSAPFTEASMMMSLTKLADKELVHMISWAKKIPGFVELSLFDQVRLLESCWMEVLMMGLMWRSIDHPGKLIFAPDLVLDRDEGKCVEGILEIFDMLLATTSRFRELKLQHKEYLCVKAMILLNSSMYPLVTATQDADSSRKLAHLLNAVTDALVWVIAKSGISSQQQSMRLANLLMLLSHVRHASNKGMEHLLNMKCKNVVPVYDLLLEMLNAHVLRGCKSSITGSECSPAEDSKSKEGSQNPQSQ
Experiment [9] addresses T6, Heat shock 70 kDa protein 1A. Put plainly: Hsp70 inhibitors, biochemical, TR-FRET (AID 786).
In another experiment the target is Bcl-2-like protein 10 (Homo sapiens, UniProt Q9HD36). Kind of experiment: Biochemical TR3 FP assay of Bcl-B inhibitor potency, EC50 (AID 1243). In kind it is functional.
Chain of Bcl-2-like protein 10 (Q9HD36 whole entry): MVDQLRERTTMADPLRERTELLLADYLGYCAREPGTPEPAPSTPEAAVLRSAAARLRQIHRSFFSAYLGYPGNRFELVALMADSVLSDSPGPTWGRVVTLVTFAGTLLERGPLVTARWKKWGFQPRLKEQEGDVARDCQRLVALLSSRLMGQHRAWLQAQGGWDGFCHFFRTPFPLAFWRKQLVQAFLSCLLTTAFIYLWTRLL
Experiment [10] addresses Heat shock protein HSP 90-alpha (Homo sapiens, UniProt P07900). Kind of experiment: Luminescence-based dose response biochemical high throughput screening assay for inhibitors of the Heat Shock Protein 90 (HSP90). [Related pubchem assays: 1831 (Summary AID.), 1846 (Confirmation screen.), 1789 (Primary screen.)].
Experiment [11] can be described thus: HIV-1 Env-mediated cell fusion inhibitors, dose response, CCR5-tropic Env (AID 2279). In kind it is functional.
For a further experiment, the target named is Cytochrome P450 2D6 (Homo sapiens, UniProt P10635). Put plainly: qHTS Assay for Inhibitors and Substrates of Cytochrome P450 2D6. [Related pubchem assays: 410 ]. The format is ADME. To be noted: read-out: Potency.
Chain of Cytochrome P450 2D6 (P10635 whole entry): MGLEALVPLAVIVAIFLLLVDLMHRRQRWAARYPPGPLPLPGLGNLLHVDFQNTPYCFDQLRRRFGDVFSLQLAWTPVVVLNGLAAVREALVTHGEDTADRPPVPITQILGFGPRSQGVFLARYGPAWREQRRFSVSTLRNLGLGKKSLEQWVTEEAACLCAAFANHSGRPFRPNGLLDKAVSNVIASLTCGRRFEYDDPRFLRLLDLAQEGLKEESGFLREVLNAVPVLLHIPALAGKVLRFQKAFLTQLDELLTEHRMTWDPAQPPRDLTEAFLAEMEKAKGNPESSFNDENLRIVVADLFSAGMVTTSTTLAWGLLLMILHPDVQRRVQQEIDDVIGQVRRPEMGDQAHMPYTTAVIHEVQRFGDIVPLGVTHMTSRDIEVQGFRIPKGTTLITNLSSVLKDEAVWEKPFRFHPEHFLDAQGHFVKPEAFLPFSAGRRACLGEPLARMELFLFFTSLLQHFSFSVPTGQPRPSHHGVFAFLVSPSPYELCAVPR
The next experiment deals with Wee1-like protein kinase (Homo sapiens, UniProt P30291). Kind of experiment: Dose Response Cell-based Assay for Inhibitors of Wee1 Degradation. [Related pubchem assays: 1410, 1321 ]. In kind it is functional.
Chain of Wee1-like protein kinase (P30291 whole entry): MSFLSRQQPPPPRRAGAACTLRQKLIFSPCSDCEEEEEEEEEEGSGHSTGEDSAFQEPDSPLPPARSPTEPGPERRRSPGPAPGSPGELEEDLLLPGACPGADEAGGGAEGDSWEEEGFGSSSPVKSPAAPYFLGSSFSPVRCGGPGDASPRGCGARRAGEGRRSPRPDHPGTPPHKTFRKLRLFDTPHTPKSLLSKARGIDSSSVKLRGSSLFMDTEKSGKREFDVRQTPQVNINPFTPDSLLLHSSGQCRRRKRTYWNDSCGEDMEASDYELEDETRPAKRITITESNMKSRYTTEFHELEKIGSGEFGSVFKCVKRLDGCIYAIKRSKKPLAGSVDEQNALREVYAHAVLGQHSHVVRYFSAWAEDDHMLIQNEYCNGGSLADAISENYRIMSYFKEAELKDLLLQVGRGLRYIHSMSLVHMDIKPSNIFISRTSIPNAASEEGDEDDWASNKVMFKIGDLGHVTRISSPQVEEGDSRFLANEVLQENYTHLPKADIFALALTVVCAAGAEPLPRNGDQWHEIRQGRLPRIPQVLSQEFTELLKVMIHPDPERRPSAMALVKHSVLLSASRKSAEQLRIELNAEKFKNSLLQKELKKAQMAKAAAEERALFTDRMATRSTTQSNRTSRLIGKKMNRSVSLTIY
Experiment [12] has as its target G2/mitotic-specific cyclin-B1 (Homo sapiens, UniProt P14635). Put plainly: Counterscreen assay for inhibitors of Wee1 degradation: dose response cell-based assay to identify inhibitors of cyclin B degradation. [Related pubchem assays: 1410, 1321 ]. The format is functional.

Chain of G2/mitotic-specific cyclin-B1 (P14635 whole entry): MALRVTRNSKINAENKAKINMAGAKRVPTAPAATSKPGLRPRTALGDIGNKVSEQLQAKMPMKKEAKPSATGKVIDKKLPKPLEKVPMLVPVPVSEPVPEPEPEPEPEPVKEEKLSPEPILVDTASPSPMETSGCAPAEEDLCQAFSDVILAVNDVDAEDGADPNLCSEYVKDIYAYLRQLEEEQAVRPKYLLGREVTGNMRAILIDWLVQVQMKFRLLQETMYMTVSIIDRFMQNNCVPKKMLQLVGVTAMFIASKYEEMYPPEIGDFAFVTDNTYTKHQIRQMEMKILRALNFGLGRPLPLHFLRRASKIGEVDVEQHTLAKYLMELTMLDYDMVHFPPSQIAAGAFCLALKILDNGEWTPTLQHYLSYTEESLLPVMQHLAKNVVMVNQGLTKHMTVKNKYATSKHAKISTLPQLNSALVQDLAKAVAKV

For the compound `CCC(C)C(NC(=O)c1ccccc1NC(=O)c1ccco1)C(=O)NC1CCCCC1` (stereo not given), the EC50 in [1] is > 100 µM (not active).
Regarding `Oc1cc2c(cc1C(c1ccc3c(c1)OCO3)N1CCN(C(c3ccc4c(c3)OCO4)c3cc4c(cc3O)OCO4)CC1)OCO2` (stereo not given), the IC50 in [2] is recorded as 14.1 µM (not active).
Regarding `CCCCOc1ccc(C(=O)C(CN2CCOCC2)c2ccccc2)cc1` (stereo not given), the values for the EC50 (in experiment [3]; on Protein RecA; in the experiment with HT-1080) were 3.7 µM (active), 26.7 µM (inconclusive) and 30 µM (active), respectively. Moreover, the AC50 in experiment [4] was 5.12 µM (active); in experiment [5], 12.6 µM (active); in experiment [6] it was 4.4 µM (active).
Consider `O=C(Nc1cccc(C(F)(F)F)c1)c1csc(-c2ccncc2)n1`, for which the results for the IC50 (in [7]; at Insulin-degrading enzyme) were 21.2 µM (not active) and 5.34 µM (active), respectively.
As to `NC(=O)COc1ccc(C2c3c(oc4ccccc4c3=O)C(=O)N2CC2CCCO2)cc1` (stereo not given), the IC50 against Estrogen receptor was > 50 µM (not active); in [8] it was 55.1 µM (active); against Estrogen receptor beta it was > 50 µM (not active); in [9], 16 µM (active).
With `O=S(=O)(O)c1cccc2cccc(Nc3ccccc3)c12`, the EC50 on Bcl-2-like protein 10 is 2.95 µM (active).
Take `COc1cc(/C=N/Nc2ccc(Cl)c(C(=O)O)c2)ccc1OC(=O)c1ccc(F)cc1`: the IC50 in experiment [10] was 0.874 µM (active); in experiment [11], 4.76 µM (active).
As for `CC1(O)C(=O)C=C2C=C3CCCN3C=C2C1=O` (stereo not given), on Cytochrome P450 2D6, the AC50 is 7.94 µM (inconclusive).
Regarding `O=C(/C=C/c1ccccc1)Nc1ccc(Cl)cn1`, the EC50 (at Wee1-like protein kinase; in [12]) was > 49.7 µM (not active) each time.
